Experimental data from PubChem BioAssay (NCI).
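A five-concentration, 48-hour dose response in 96-well plates underlies each endpoint, interpolated linearly between surrounding concentrations. GI50 is the concentration that inhibits growth by half. TGI is the concentration that stops growth completely.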

Tests used:
Test in all cases: inhibition of tumour cell growth, NCI panel, 48 h
IGROV1 ovarian = test system: IGROV1 ovarian
OVCAR-4 ovarian = test system: OVCAR-4 ovarian
SNB-75 CNS = test system: SNB-75 CNS
RXF 393 renal = test system: RXF 393 renal
SF-268 CNS = test system: SF-268 CNS
HL-60(TB) leukemia = test system: HL-60(TB) leukemia
U251 CNS = test system: U251 CNS
HCT-15 colon = test system: HCT-15 colon
EKVX NSCLC = test system: EKVX NSCLC
A549 NSCLC = test system: A549 NSCLC
786-0 renal = test system: 786-0 renal
NCI-H226 lung = test system: NCI-H226 lung
HT29 colon = test system: HT29 colon
PC-3 prostate = test system: PC-3 prostate
HOP-62 NSCLC = test system: HOP-62 NSCLC
NCI/ADR-RES ovarian = test system: NCI/ADR-RES ovarian
OVCAR-5 ovarian = test system: OVCAR-5 ovarian
SK-MEL-5 melanoma = test system: SK-MEL-5 melanoma
ACHN renal = test system: ACHN renal
HCT-116 colon = test system: HCT-116 colon
MOLT-4 leukemia = test system: MOLT-4 leukemia
MCF7 breast = test system: MCF7 breast
HOP-92 NSCLC = test system: HOP-92 NSCLC
T-47D breast = test system: T-47D breast
NCI-H23 lung = test system: NCI-H23 lung
MDA-MB-231 breast = test system: MDA-MB-231 breast
SK-OV-3 ovarian = test system: SK-OV-3 ovarian
CAKI-1 renal = test system: CAKI-1 renal
SNB-19 CNS = test system: SNB-19 CNS
SN12C renal = test system: SN12C renal
OVCAR-8 ovarian = test system: OVCAR-8 ovarian
LOX IMVI melanoma = test system: LOX IMVI melanoma
COLO 205 colon = test system: COLO 205 colon
SW-620 colon = test system: SW-620 colon
M14 melanoma = test system: M14 melanoma
UO-31 renal = test system: UO-31 renal
RPMI-8226 leukemia = test system: RPMI-8226 leukemia
NCI-H460 lung = test system: NCI-H460 lung
MDA-MB-435 = test system: MDA-MB-435
NCI-H522 lung = test system: NCI-H522 lung
UACC-257 melanoma = test system: UACC-257 melanoma
SF-295 CNS = test system: SF-295 CNS
SF-539 CNS = test system: SF-539 CNS
HS 578T breast = test system: HS 578T breast
A498 renal = test system: A498 renal
K-562 leukemia = test system: K-562 leukemia
SK-MEL-2 melanoma = test system: SK-MEL-2 melanoma
MALME-3M melanoma = test system: MALME-3M melanoma
HCC-2998 colon = test system: HCC-2998 colon
DU-145 prostate = test system: DU-145 prostate
KM12 colon = test system: KM12 colon
TK-10 renal = test system: TK-10 renal
SK-MEL-28 melanoma = test system: SK-MEL-28 melanoma
OVCAR-3 ovarian = test system: OVCAR-3 ovarian
UACC-62 melanoma = test system: UACC-62 melanoma

With O=c1c2[nH]ccc2nc2n1CCS2 the GI50 (IGROV1 ovarian) was > 100 µM, the TGI (IGROV1 ovarian) was > 100 µM and the GI50 (OVCAR-4 ovarian) was > 100 µM. The TGI (OVCAR-4 ovarian) was > 100 µM, the GI50 (SNB-75 CNS) was 33.6 µM and the TGI (SNB-75 CNS) was > 100 µM. The GI50 (RXF 393 renal) was > 100 µM, the TGI (RXF 393 renal) was > 100 µM and the GI50 (SF-268 CNS) was > 100 µM. The TGI (SF-268 CNS) was > 100 µM, the GI50 (HL-60(TB) leukemia) was 46.6 µM and the TGI (HL-60(TB) leukemia) was > 100 µM. The GI50 (U251 CNS) was > 100 µM, the TGI (U251 CNS) was > 100 µM and the GI50 (HCT-15 colon) was > 100 µM. The TGI (HCT-15 colon) was > 100 µM, the GI50 (EKVX NSCLC) was > 100 µM and the TGI (EKVX NSCLC) was > 100 µM. The GI50 (A549 NSCLC) was > 100 µM, the TGI (A549 NSCLC) was > 100 µM and the GI50 (786-0 renal) was > 100 µM. The TGI (786-0 renal) was > 100 µM, the GI50 (NCI-H226 lung) was > 100 µM and the TGI (NCI-H226 lung) was > 100 µM. The GI50 (HT29 colon) was > 100 µM, the TGI (HT29 colon) was > 100 µM and the GI50 (PC-3 prostate) was > 100 µM. For the same compound, the TGI (PC-3 prostate) was > 100 µM, the GI50 (HOP-62 NSCLC) was > 100 µM and the TGI (HOP-62 NSCLC) was > 100 µM. For the same compound, the GI50 (NCI/ADR-RES ovarian) was > 100 µM, the TGI (NCI/ADR-RES ovarian) was > 100 µM and the GI50 (OVCAR-5 ovarian) was > 100 µM. For the same compound, the TGI (OVCAR-5 ovarian) was > 100 µM, the GI50 (SK-MEL-5 melanoma) was 0.324 µM and the TGI (SK-MEL-5 melanoma) was 0.913 µM. For the same compound, the GI50 (ACHN renal) was > 100 µM, the TGI (ACHN renal) was > 100 µM and the GI50 (HCT-116 colon) was > 100 µM. For the same compound, the TGI (HCT-116 colon) was > 100 µM, the GI50 (MOLT-4 leukemia) was > 100 µM and the TGI (MOLT-4 leukemia) was > 100 µM. The GI50 (MCF7 breast) was > 100 µM, the TGI (MCF7 breast) was > 100 µM and the GI50 (HOP-92 NSCLC) was > 100 µM. For the same compound, the TGI (HOP-92 NSCLC) was > 100 µM, the GI50 (T-47D breast) was > 100 µM and the TGI (T-47D breast) was > 100 µM. For the same compound, the GI50 (NCI-H23 lung) was > 100 µM, the TGI (NCI-H23 lung) was > 100 µM and the GI50 (MDA-MB-231 breast) was > 100 µM. For the same compound, the TGI (MDA-MB-231 breast) was > 100 µM, the GI50 (SK-OV-3 ovarian) was > 100 µM and the TGI (SK-OV-3 ovarian) was > 100 µM. The GI50 (CAKI-1 renal) was > 100 µM, the TGI (CAKI-1 renal) was > 100 µM and the GI50 (SNB-19 CNS) was > 100 µM. The TGI (SNB-19 CNS) was > 100 µM, the GI50 (SN12C renal) was > 100 µM and the TGI (SN12C renal) was > 100 µM. For the same compound, the GI50 (OVCAR-8 ovarian) was > 100 µM, the TGI (OVCAR-8 ovarian) was > 100 µM and the GI50 (LOX IMVI melanoma) was > 100 µM. For the same compound, the TGI (LOX IMVI melanoma) was > 100 µM, the GI50 (COLO 205 colon) was > 100 µM and the TGI (COLO 205 colon) was > 100 µM. For the same compound, the GI50 (SW-620 colon) was > 100 µM, the TGI (SW-620 colon) was > 100 µM and the GI50 (M14 melanoma) was > 100 µM. The TGI (M14 melanoma) was > 100 µM, the GI50 (UO-31 renal) was > 100 µM and the TGI (UO-31 renal) was > 100 µM. The GI50 (RPMI-8226 leukemia) was > 100 µM, the TGI (RPMI-8226 leukemia) was > 100 µM and the GI50 (NCI-H460 lung) was > 100 µM. For the same compound, the TGI (NCI-H460 lung) was > 100 µM, the GI50 (MDA-MB-435) was > 100 µM and the TGI (MDA-MB-435) was > 100 µM. For the same compound, the GI50 (NCI-H522 lung) was > 100 µM, the TGI (NCI-H522 lung) was > 100 µM and the GI50 (UACC-257 melanoma) was > 100 µM. For the same compound, the TGI (UACC-257 melanoma) was > 100 µM, the GI50 (SF-295 CNS) was > 100 µM and the TGI (SF-295 CNS) was > 100 µM. For the same compound, the GI50 (SF-539 CNS) was > 100 µM, the TGI (SF-539 CNS) was > 100 µM and the GI50 (HS 578T breast) was > 100 µM. For the same compound, the TGI (HS 578T breast) was > 100 µM, the GI50 (A498 renal) was > 100 µM and the TGI (A498 renal) was > 100 µM. For the same compound, the GI50 (K-562 leukemia) was > 100 µM, the TGI (K-562 leukemia) was > 100 µM and the GI50 (SK-MEL-2 melanoma) was > 100 µM. The TGI (SK-MEL-2 melanoma) was > 100 µM, the GI50 (MALME-3M melanoma) was > 100 µM and the TGI (MALME-3M melanoma) was > 100 µM. For the same compound, the GI50 (HCC-2998 colon) was > 100 µM, the TGI (HCC-2998 colon) was > 100 µM and the GI50 (DU-145 prostate) was > 100 µM. The TGI (DU-145 prostate) was > 100 µM, the GI50 (KM12 colon) was > 100 µM and the TGI (KM12 colon) was > 100 µM. The GI50 (TK-10 renal) was > 100 µM, the TGI (TK-10 renal) was > 100 µM and the GI50 (SK-MEL-28 melanoma) was > 100 µM. For the same compound, the TGI (SK-MEL-28 melanoma) was > 100 µM, the GI50 (OVCAR-3 ovarian) was > 100 µM and the TGI (OVCAR-3 ovarian) was > 100 µM. The GI50 (UACC-62 melanoma) was > 100 µM and the TGI (UACC-62 melanoma) was > 100 µM.
